Measured values published in patent publication EP0497091A1, “Bridged cyclic ketal derivatives” (GLAXO GROUP LIMITED, priority 1991, dated 1992).
Like-named read-outs stand apart in the source and are kept apart here.

Molecular target: T1, squalene synthase (Rattus norvegicus, UniProt Q02769)
T1 construct: from tissue; host or cells: rat liver homogenate
T1 sequence (Q02769 1-416): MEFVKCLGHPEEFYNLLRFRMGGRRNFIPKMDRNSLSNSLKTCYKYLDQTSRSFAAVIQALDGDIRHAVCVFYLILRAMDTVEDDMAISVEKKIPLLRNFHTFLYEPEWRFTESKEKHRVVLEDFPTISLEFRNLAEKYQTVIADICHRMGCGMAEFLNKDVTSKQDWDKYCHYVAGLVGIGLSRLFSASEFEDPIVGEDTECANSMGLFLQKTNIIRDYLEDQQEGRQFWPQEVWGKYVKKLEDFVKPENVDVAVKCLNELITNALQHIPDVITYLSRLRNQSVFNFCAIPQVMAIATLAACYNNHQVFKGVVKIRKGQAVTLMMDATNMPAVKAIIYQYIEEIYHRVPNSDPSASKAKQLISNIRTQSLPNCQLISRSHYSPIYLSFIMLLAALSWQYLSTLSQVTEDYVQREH
Assay: Inhibition of squalene synthase ([14C]squalene production from [2-14C]farnesylpyrophosphate)
Assay type: biochemical
Excerpt: A. Biller et al. in J. […] [¹⁴C]squalene is separated from unreacted substrate on thin layer chromatography plates and determined by liquid scintillation counting. […] Acta, Volume 877, 50-60 (1986) and modified to include measurement of cholesterol by high performance liquid chromatography (h.p.l.c.). […] A. […] [¹⁴C] Squalene was separated from unreacted substrate on thin layer chromatography plates and determined by liquid scintillation counting. Inhibition of squalene synthase was quantified by incubating rat liver homogenate with various concentrations of the test compound in the presence of [2-¹⁴C] farnesylpyrophosphate. The concentration of compound giving 50% inhibition of [¹⁴C] squalene production in a 30 minute assay was taken as the IC₅₀ value.

[1] = rat liver homogenate, [2-¹⁴C] farnesylpyrophosphate as substrate, 50% inhibition of [¹⁴C] squalene production in a 30 minute assay, read-out: IC₅₀

Row | Compound | IC50 [nM] | IC50 [1] [nM]
1 | CCC(C)CC(C)CCC(=O)OC1C(O)C2(CCC(C)=CC(C)Cc3ccccc3)OC(C(=O)O)C(O)(C(=O)O)C1(C(=O)O)O2 (mixture of isomers) [Example 15, [1S-[1α[(Z/E),5S*],3α,4β,5α,6α(4S*6R*),7β]] 1-(3,5-Dimethyl-6-phenyl-3-hexenyl)-4,6,7-trihydroxy-2,8-dioxabicyclo[3.2.1]octane-3,4,5-tricarboxylic acid, 6-(4,6-dimethyloctanoate)] | < 100 | –
2 | CC[C@H](C)C[C@H](C)/C=C/C(=O)O[C@@H]1[C@@H](O)[C@@]2(C/C=C(\C)C(=O)[C@H](C)Cc3ccccc3)O[C@H](C(=O)O)[C@@](O)(C(=O)O)[C@]1(C(=O)O)O2 (relative stereo) [Example 2, [1S-[1α[(E),5S*],3α,4β,5α,6α(2E,4R*,6R*),7β]] 1-(3,5-Dimethyl-4-oxo-6-phenyl-2-hexenyl)-4,6,7-trihydroxy-2,8-dioxabicyclo[3.2.1]octane-3,4,5-tricarboxylic acid, 6-(4,6-dimethyl-2-octenoate)] | < 100 | –
3 | CC[C@H](C)C[C@H](C)/C=C/C(=O)O[C@@H]1[C@@H](O)[C@@]2(C/C=C(\C)[C@@H](O)[C@H](C)Cc3ccccc3)O[C@H](C(=O)O)[C@@](O)(C(=O)O)[C@]1(C(=O)O)O2 (relative stereo) [Example 5, [1S-[1α[(E),4R*,5S*],3α,4β,5α,6α(2E,4R*,6R*),7β]] 1-(4-Hydroxy-3,5-dimethyl-6-phenyl-2-hexenyl)-4,6,7-trihydroxy-2,8-dioxabicyclo[3.2.1]octane-3,4,5-tricarboxylic acid, 6-(4,6-dimethyl-2-octenoate)] | < 100 | –
4 | CC[C@H](C)C[C@H](C)/C=C/C(=O)O[C@@H]1[C@@H](O)[C@@]2(C/C=C(\C)C[C@H](C)Cc3ccccc3)O[C@H](C(=O)O)[C@@](O)(C(=O)O)[C@]1(C(=O)O)O2 (relative stereo) [Example 9, [1S-[1α[(E),5R*],3α,4β,5α,6α(2E,4R*,6R*),7β]] 1-(3,5-Dimethyl-6-phenyl-2-hexenyl)-4,6,7-trihydroxy-2,8-dioxabicyclo[3.2.1]octane-3,4,5-tricarboxylic acid, 6-(4,6-dimethyl-2-octenoate)] | < 100 | –
5 | CCC(CC[C@]12O[C@H](C(=O)O)[C@@](O)(C(=O)O)[C@](C(=O)O)(O1)[C@H](OC(=O)/C=C/[C@@H](C)C[C@@H](C)CC)[C@H]2O)C(=O)[C@H](C)Cc1ccccc1 (relative stereo) [Example 10, [1S-[1α(3R*S*,5S*),3α,4β,5α,6α(2E,4R*,6R*),7β]] 1-(3-Ethyl-5-methyl-4-oxo-6-phenylhexyl)-4,6,7-trihydroxy-2,8-dioxabicyclo[3.2.1]octane-3,4,5-tricarboxylic acid, 6-(4,6-dimethyl-2-octenoate)] | < 100 | –
6 | CC[C@H](C)C[C@H](C)CCC(=O)O[C@@H]1[C@@H](O)[C@@]2(C/C=C(\C)[C@@H](O)[C@H](C)Cc3ccccc3)O[C@H](C(=O)O)[C@@](O)(C(=O)O)[C@]1(C(=O)O)O2 (relative stereo) [Example 14, [1S-[1α[(E),4R*,5S*],3α,4β,5α,6α(4S*,6R*),7β]] 1-(3,5-Dimethyl-4-hydroxy-6-phenyl-2-hexenyl)-4,6,7-trihydroxy-2,8-dioxabicyclo[3.2.1]octane-3,4,5-tricarboxylic acid, 6-(4,6-dimethyloctanoate)] | < 100 | –
7 | C=C(CC[C@]12O[C@H](C(=O)O)[C@@](O)(C(=O)O)[C@](C(=O)O)(O1)[C@H](OC(=O)C1CCCCC1)[C@H]2O)[C@@H](OC(C)=O)[C@H](C)Cc1ccccc1 (relative stereo) [Example 43, [1S-[1α(4R*,5S*),3α,4β,5α,6α,7β]] 1-(4-Acetyloxy-5-methyl-3-methylene-6-phenylhexyl)-4,6,7-trihydroxy-2,8-dioxabicyclo[3.2.1]octane-3,4,5-tricarboxylic acid, 6-(cyclohexanecarboxylate)] | < 100 | –
8 | C=C(CC[C@]12O[C@H](C(=O)O)[C@@](O)(C(=O)O)[C@](C(=O)O)(O1)[C@H](OC(=O)c1ccccc1)[C@H]2O)[C@@H](OC(C)=O)[C@H](C)Cc1ccccc1 (relative stereo) [Example 47, [1S-[4α(4R*,5S*),3α,4β,5α,6α,7β]] 1-(4-Acetyloxy-5-methyl-3-methylene-6-phenylhexyl)-4,6,7-trihydroxy-2,8-dioxabicyclo[3.2.1]octane-3,4,5-tricarboxylic acid, 6-benzoate] | < 100 | –
9 | C=C(CC[C@]12O[C@H](C(=O)O)[C@@](O)(C(=O)O)[C@](C(=O)O)(O1)[C@H](OC(=O)/C=C/c1ccccc1)[C@H]2O)[C@@H](OC(C)=O)[C@H](C)Cc1ccccc1 (relative stereo) [Example 49, [1S-[1α(4R*,5S*),3α,4β,5α,6α(2E),7β]] 1-(4-Acetyloxy-5-methyl-3-methylene-6-phenylhexyl)-4,6,7-trihydroxy-2,8-dioxabicyclo[3.2.1]octane-3,4,5-tricarboxylic acid, 6-(3-phenyl-2-propenoate)] | < 100 | –
10 | C=C(CC[C@]12O[C@H](C(=O)O)[C@@](O)(C(=O)O)[C@](C(=O)O)(O1)[C@H](OC(=O)CCCC(C)=O)[C@H]2O)[C@@H](OC(C)=O)[C@H](C)Cc1ccccc1 (relative stereo) [Example 51, [1S-[1α(4R*,5S*),3α,4β,5α,6α,7β]] 1-(4-Acetyloxy-5-methyl-3-methylene-6-phenylhexyl)-4,6,7-trihydroxy-2,8-dioxabicyclo[3.2.1]octane-3,4,5-tricarboxylic acid, 6-(5-oxo-hexanoate)] | < 100 | –
11 | C=C(CC[C@]12O[C@H](C(=O)O)[C@@](O)(C(=O)O)[C@](C(=O)O)(O1)[C@H](OC(=O)OC)[C@H]2O)[C@@H](OC(C)=O)[C@H](C)Cc1ccccc1 (relative stereo) [Example 56, [1S-[1α(4R*,5S*),3α,4β,5α,6α,7β]] 1-(4-Acetyloxy-5-methyl-3-methylene-6-phenylhexyl)-4,7-dihydroxy-6-[(methoxycarbonyl)oxy]-2,8-dioxabicyclo[3.2.1]octane-3,4,5-tricarboxylic acid] | < 100 | –
12 | C=C(CC[C@]12O[C@H](C(=O)O)[C@@](O)(C(=O)O)[C@](C(=O)O)(O1)[C@H](OC(=O)OCCCC)[C@H]2O)[C@@H](OC(C)=O)[C@H](C)Cc1ccccc1 (relative stereo) [Example 60, [1S-[1α(4R*,5S*)3α,4β,5α,6α,7β]] 1-(4-Acetyloxy-5-methyl-3-methylene-6-phenylhexyl)-6-[(butoxycarbonyl)oxy]-4,7-dihydroxy-2,8-dioxabicyclo[3.2.1]octane-3,4,5-tricarboxylic acid] | < 100 | –
13 | C=C(CC[C@]12O[C@H](C(=O)O)[C@@](O)(C(=O)O)[C@](C(=O)O)(O1)[C@H](OC(=O)NCC)[C@H]2O)[C@@H](OC(C)=O)[C@H](C)Cc1ccccc1 (relative stereo) [Example 66, [1S-[1α(4R*,5S*),3α,4β,5α,6α,7β]] 1-(4-Acetyloxy-5-methyl-3-methylene-6-phenylhexyl)-6-[[(ethylamino)carbonyl]oxy]4,7-dihydroxy-2,8-dioxabicyclo[3.2.1]octane-3,4,5-tricarboxylic acid] | < 100 | –
14 | C=C(CC[C@]12O[C@H](C(=O)O)[C@@](O)(C(=O)O)[C@](C(=O)O)(O1)[C@H](OC(=O)NC)[C@H]2O)[C@@H](OC(C)=O)[C@H](C)Cc1ccccc1 (relative stereo) [Example 67, [1S-[1α(4R*,5S*),3α,4β,5α,6α,7β]] 1-(4-Acetyloxy-5-methyl-3-methylene-6-phenylhexyl)-4,7-dihydroxy-6-[[(methylamino)carbonyl]oxy]-2,8-dioxabicyclo[3.2.1]octane-3,4,5-tricarboxylic acid] | < 100 | –
15 | CCC(C)CC(C)/C=C/C(=O)OC1C(O)C2(CCC(C)C(=O)C(C)Cc3ccccc3)OC(C(=O)O)C(O)(C(=O)O)C1(C(=O)O)O2 (single isomer, unassigned) [Example 6, [1S-[1α[3R*(S*),5S*],3α,4β,5α,6α(2E,4R*,6R*),7β]] 1-(3,5-Dimethyl-4-oxo-6-phenylhexyl)-4,6,7-trihydroxy-2,8-dioxabicyclo[3.2.1]octane-3,4,5-tricarboxylic acid, 6-(4,6-dimethyl-2-octenoate), isomer 1 and isomer 2] | – | < 100
16 | CCC(C)CC(C)C=CC(=O)OC1C(O)C2(CCC(C)C(O)C(C)Cc3ccccc3)OC(C(=O)O)C(O)(C(=O)O)C1(C(=O)O)O2 (single isomer, unassigned) [Example 7, [1S-[1α[3R*(S*),4R*,5S*],3α,4β,5α,6α(2E,4R*,6R*),7β]] and [1S-[1α[3R*(S*),4S*,5S*],3α,4β,5α,6α(2E,4R*,6R*),7β]] 1-(4-Hydroxy-3,5-dimethyl-6-phenylhexyl)-4,6,7-trihydroxy-2,8-dioxabicyclo[3.2.1]octane-3,4,5-tricarboxylic acid, 6-(4,6-dimethyl-2-octenoate), isomer 1 and isomer 2] | – | < 100
